The values below come from US7998989B2, “2-Imino-1,3-thiazoline-based compounds and T-type calcium channel inhibitors containing the same” (Korea Institute of Science and Technology, priority 2007, dated 2011).

Read-outs that look alike come from different tables or passages of the source.

As usually defined, the melting point is the temperature of the solid-liquid transition.

Data set [1] concerns the target T1, α1G T-type calcium channel (Homo sapiens, UniProt O43497).
T1 construct: host or cells: HEK293
Put plainly: Assay for % inhibiting activity against T-type calcium channel using FDSS6000 (fluo-3 calcium imaging, KCl activation). The format is cell-based. The essentials: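 Percent inhibition derived from […] area against untreated control (100%), after 75 s compound pre-exposure and 75 mM KCl activation. Cells: HEK293 with stable α1G plus Kir2.1, fluo-3/AM-labelled (5 μM), assayed in pH 7.4 HEPES containing 10 mM CaCl2.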

The mark [2] stands for this setting: HEK293, 10 μM, HEK293 cells stably expressing α1G T-type calcium channel and Kir2.1, compounds of the examples, read-out: FDSS (% inhibition)/10uM.
Setting [3] is: 10 μM, FDSS (% inhibition), comparative compounds where R6 is a phenyl group, read-out: FDSS.

T1 sequence (O43497 whole entry): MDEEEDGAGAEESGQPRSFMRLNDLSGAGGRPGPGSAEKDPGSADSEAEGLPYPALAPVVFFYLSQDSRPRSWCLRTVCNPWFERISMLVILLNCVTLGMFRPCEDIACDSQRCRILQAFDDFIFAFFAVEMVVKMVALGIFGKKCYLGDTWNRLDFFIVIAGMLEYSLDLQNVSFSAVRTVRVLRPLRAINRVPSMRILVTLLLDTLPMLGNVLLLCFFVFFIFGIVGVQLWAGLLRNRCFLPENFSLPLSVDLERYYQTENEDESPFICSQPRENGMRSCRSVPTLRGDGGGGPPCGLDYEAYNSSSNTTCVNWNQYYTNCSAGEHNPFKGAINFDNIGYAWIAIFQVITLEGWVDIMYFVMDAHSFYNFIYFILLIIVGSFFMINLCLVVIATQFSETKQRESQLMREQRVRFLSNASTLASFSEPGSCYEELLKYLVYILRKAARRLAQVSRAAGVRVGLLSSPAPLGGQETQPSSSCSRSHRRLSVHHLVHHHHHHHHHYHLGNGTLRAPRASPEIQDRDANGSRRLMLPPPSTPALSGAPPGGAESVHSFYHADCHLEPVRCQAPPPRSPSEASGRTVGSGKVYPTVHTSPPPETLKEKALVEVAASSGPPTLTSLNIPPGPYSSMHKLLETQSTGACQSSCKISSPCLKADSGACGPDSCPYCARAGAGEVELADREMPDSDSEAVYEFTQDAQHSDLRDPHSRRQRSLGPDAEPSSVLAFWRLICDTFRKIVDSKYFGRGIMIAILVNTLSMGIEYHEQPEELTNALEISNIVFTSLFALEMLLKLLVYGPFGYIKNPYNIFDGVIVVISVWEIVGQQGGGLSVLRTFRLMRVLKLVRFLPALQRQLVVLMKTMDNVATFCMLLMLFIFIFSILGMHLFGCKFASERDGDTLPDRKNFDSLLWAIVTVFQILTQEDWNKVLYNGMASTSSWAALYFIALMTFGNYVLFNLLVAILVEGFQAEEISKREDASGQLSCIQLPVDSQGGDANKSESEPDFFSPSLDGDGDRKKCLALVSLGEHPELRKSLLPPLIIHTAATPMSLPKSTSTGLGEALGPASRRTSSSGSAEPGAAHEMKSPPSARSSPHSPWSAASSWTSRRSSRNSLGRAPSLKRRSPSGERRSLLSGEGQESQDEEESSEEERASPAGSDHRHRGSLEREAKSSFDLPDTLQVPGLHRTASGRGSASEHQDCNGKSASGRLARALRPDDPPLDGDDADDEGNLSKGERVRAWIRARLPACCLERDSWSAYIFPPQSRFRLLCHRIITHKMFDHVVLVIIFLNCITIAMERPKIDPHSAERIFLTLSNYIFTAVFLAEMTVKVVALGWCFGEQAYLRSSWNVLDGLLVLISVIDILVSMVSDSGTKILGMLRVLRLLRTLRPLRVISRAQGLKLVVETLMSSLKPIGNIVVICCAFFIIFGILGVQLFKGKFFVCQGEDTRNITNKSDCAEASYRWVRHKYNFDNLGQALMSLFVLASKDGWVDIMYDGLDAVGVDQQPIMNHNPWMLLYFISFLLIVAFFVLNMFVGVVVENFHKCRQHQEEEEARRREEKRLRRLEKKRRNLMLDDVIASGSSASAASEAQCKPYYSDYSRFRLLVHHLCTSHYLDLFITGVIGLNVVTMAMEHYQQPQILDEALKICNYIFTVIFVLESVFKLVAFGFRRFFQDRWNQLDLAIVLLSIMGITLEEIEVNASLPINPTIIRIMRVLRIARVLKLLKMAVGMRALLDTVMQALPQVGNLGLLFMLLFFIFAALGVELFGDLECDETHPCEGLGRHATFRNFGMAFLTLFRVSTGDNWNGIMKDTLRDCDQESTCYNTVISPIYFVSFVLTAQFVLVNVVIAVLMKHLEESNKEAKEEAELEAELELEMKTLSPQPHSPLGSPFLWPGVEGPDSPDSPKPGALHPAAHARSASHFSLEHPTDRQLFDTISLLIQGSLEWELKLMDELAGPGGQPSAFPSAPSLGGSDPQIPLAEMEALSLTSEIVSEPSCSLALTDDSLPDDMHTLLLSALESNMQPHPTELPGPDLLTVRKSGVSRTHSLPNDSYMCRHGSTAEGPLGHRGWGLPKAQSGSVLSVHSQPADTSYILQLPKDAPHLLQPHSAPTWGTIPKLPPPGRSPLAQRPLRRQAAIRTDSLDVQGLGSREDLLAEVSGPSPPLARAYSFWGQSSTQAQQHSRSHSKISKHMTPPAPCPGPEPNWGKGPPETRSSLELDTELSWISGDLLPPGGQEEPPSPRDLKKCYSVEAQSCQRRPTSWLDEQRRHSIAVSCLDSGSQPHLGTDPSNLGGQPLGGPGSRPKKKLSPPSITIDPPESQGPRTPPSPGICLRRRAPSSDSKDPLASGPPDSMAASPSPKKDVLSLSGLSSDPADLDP

On to `Cl.O=C(CC1CSC(=NC23CC4CC(CC(C4)C2)C3)N1C1CC1)Nc1cc(Cl)ccc1F` (stereo not shown) [KHG24802, [2-(1-adamantylimino)-3-cyclopropyl-1,3-thiazolidine-4-yl]-N-(5-chloro-2-fluorophenyl)-acetamide hydrochloride], for which the melting point amounted to 244 °C. In addition, the inhibition at 10 µM in data set [1] (setting [2]) stood at 62.4%.
The like results for `CCCCc1ccc(NC(=O)CC2CSC(=NC34CC5CC(CC(C5)C3)C4)N2CCC)cc1.Cl` (stereo not shown) [KHG24808, [2-(1-adamantylimino)-3-n-propyl-1,3-thiazolidine-4-yl]-N-(4-n-butylphenyl)-acetamide hydrochloride] were, in that order, 213 °C and 37.6%.
`CCCCc1ccc(NC(=O)CC2CSC(=NC34CC5CC(CC(C5)C3)C4)N2CCCC)cc1.Cl` (stereo not shown) [KHG24776, [2-(1-adamantylimino)-3-(n-butyl)-1,3-thiazolidine-4-yl]-N-(4-n-butylphenyl)-acetamide hydrochloride] showed a melting point of 169 °C. Further, the inhibition at 10 µM in data set [1] (setting [2]) was 33.8%.
`CN1C(=NC2CCCCCC2)SCC1C(=O)NCc1cccc(F)c1.Cl` (stereo not shown) [KHG24666, (2-cycloheptylimino-3-methyl-1,3-thiazolidine-4-yl)-N-(3-fluorobenzyl)-carboxamide hydrochloride] registered a melting point of 226.1 °C. Besides, the inhibition at 10 µM in data set [1] (setting [2]) was found to be 46.2%.
The like results for `Br.CN1C(=NC2CCCCCC2)SCC1C(=O)NCc1cccc(Br)c1` (stereo not shown) [KHG24668, (2-cycloheptylimino-3-methyl-1,3-thiazolidine-4-yl)-N-(3-bromobenzyl)-carboxamide hydrobromide] were, in that order, 197.3 °C and 50.7%.
The like results for `CCCN1C(=NC23CC4CC(CC(C4)C2)C3)SCC1CC(=O)Nc1ccc(Br)cc1.Cl` (stereo not shown) [KHG24812, [2-(1-adamantylimino)-3-n-propyl-1,3-thiazolidine-4-yl]-N-(4-bromophenyl)-acetamide hydrochloride] were, in that order, 228 °C and 53.8%.
`CN1C(=Nc2ccc(Oc3ccccc3)cc2)SCC1CC(=O)Nc1ccc(Cl)cc1.Cl` (stereo not shown) [KHG21650, [2-(4-phenoxyphenylimino)-3-methyl-1,3-thiazolidine-4-yl]-N-(4-chlorophenyl)-acetamide hydrochloride] came in with a melting point of 238 to 242 °C. In addition, the inhibition at 10 µM in data set [1] (setting [3]) was 2.59%.
In turn, `CCCN1C(=NC23CC4CC(CC(C4)C2)C3)SCC1CC(=O)Nc1cc(Cl)cc(Cl)c1.Cl` (stereo not shown) [KHG24805, [2-(1-adamantylimino)-3-n-propyl-1,3-thiazolidine-4-yl]-N-(3,5-dichlorophenyl)-acetamide hydrochloride] registered a melting point of 153 °C. Besides, the inhibition at 10 µM in data set [1] (setting [2]) turned out to be 32.2%.
In the case of `CCc1ccc(NC(=O)CC2CSC(=NC3CCCCC3)N2Cc2ccccc2)cc1.Cl` (stereo not shown) [KHG24306, (2-cyclohexylimino-3-benzyl-1,3-thiazolidine-4-yl)-N-(4-ethylphenyl)-acetamide hydrochloride], the melting point came to 146.4 °C. Moreover, in data set [1] (setting [2]), the inhibition at 10 µM was found to be 53.2%.
Molecule `CCCCN1C(=NC2CCCCC2)SCC1CC(=O)Nc1ccc(Br)cc1.Cl` (stereo not shown) [KHG24263, [2-cyclohexylimino-3-(n-butyl)-1,3-thiazolidine-4-yl]-N-(4-bromophenyl)-acetamide hydrochloride] showed a melting point of 215.2 °C. Besides, in data set [1] (setting [2]), the inhibition at 10 µM amounted to 52.1%.
`COc1ccc(N=C2SCC(CC(=O)Nc3ccc(Cl)cc3)N2C)cc1.Cl` (stereo not shown) [KHG21648, [2-(4-methoxyphenylimino)-3-methyl-1,3-thiazolidine-4-yl]-N-(4-chlorophenyl)-acetamide hydrochloride] yielded a melting point of 250 to 253 °C. For the same molecule, the inhibition at 10 µM in data set [1] (setting [3]) was found to be 26.2%.
With `CCCN1C(=NC2CCCCC2)SCC1CC(=O)NCc1ccc(C)cc1.Cl` (stereo not shown) [KHG24293, [2-cyclohexylimino-3-(n-propyl)-1,3-thiazolidine-4-yl]-N-(4-methylbenzyl)-acetamide hydrochloride], the melting point was in the range of 189.5 to 191.2 °C. Besides, the inhibition at 10 µM in data set [1] (setting [2]) was 55.8%.
The like results for `CCc1ccc(NC(=O)CC2C(C)SC(=NC3CCCCC3)N2C)cc1.Cl` (stereo not shown) [KHG24523, (2-cyclohexylimino-3,5-dimethyl-1,3-thiazolidine-4-yl)-N-(4-ethylphenyl)-acetamide hydrochloride] were, in that order, 265 to 266 °C and 46.3%.
`COc1cccc(N=C2SCC(CC(=O)Nc3ccc(Cl)cc3)N2C)c1.Cl` (stereo not shown) [KHG21649, [2-(3-methoxyphenylimino)-3-methyl-1,3-thiazolidine-4-yl]-N-(4-chlorophenyl)-acetamide hydrochloride] registered a melting point of 228 to 231 °C. For the same molecule, the inhibition at 10 µM in data set [1] (setting [3]) came to 27.8%.
Turning to `Cc1cc(NC(=O)CC2CSC(=NC3CCCCC3)N2C)ccc1Br.Cl` (stereo not shown) [KHG24111, (2-cyclohexylimino-3-methyl-1,3-thiazolidine-4-yl)-N-(4-bromo-3-methylphenyl)-acetamide hydrochloride], the melting point fell in the range of 237 to 238 °C. Also, the inhibition at 10 µM in data set [1] (setting [2]) stood at 67.7%.
`Cl.O=C(CC1CSC(=NC23CC4CC(CC(C4)C2)C3)N1C1CC1)Nc1cc(C(F)(F)F)cc(C(F)(F)F)c1` (stereo not shown) [KHG24792, [2-(1-adamantylimino)-3-cyclopropyl-1,3-thiazolidine-4-yl]-N-(3,5-ditrifluoromethylphenyl)-acetamide hydrochloride] registered a melting point of 258 °C. Further, the inhibition at 10 µM in data set [1] (setting [2]) was determined as 67%.
The like results for `CN1C(=NC2CCCCCC2)SCC1C(=O)NCc1ccc(Cl)c(Cl)c1.Cl` (stereo not shown) [KHG24338, (2-cycloheptylimino-3-methyl-1,3-thiazolidine-4-yl)-N-(3,4-dichlorobenzyl)-carboxamide hydrochloride] were, in that order, 218 to 219 °C and 70.8%.
For `CCCCN1C(=NC2CCCCC2)SCC1CC(=O)Nc1ccc(C)cc1.Cl` (stereo not shown) [KHG24285, [2-cyclohexylimino-3-(n-butyl)-1,3-thiazolidine-4-yl]-N-(4-methylphenyl)-acetamide hydrochloride], the melting point was 183.4 °C. Moreover, the inhibition at 10 µM in data set [1] (setting [2]) amounted to 46%.
The like results for `CC1SC(=NC2CCCCC2)N(C)C1CC(=O)Nc1ccc(Br)cc1` (stereo not shown) [KHG24482, (2-cyclohexylimino-3,5-dimethyl-1,3-thiazolidine-4-yl)-N-(4-bromophenyl)-acetamide] were, in that order, 260 to 262 °C and 52.4%.
The matching figures for `CCCCN1C(=NC23CC4CC(CC(C4)C2)C3)SCC1CC(=O)Nc1ccc(Cl)cc1.Cl` (stereo not shown) [KHG24775, [2-(1-adamantylimino)-3-(n-butyl)-1,3-thiazolidine-4-yl]-N-(4-chlorophenyl)-acetamide hydrochloride]: 158 °C and 62.9%.
The like results for `CN1C(=NC2CCCC2)SCC1CC(=O)Nc1ccc(Cl)cc1.Cl` (stereo not shown) [KHG24106, (2-cyclopentylimino-3-methyl-1,3-thiazolidine-4-yl)-N-(4-chlorophenyl)-acetamide hydrochloride] were, in that order, 215 to 216 °C and 49.4%.
Regarding `Cl.O=C(CC1CSC(=NC2CCCCC2)N1Cc1ccccc1)Nc1cc(Cl)cc(Cl)c1` (stereo not shown) [KHG24422, (2-cyclohexylimino-3-benzyl-1,3-thiazolidine-4-yl)-N-(3,5-dichlorophenyl)-acetamide hydrochloride], the melting point was in the range of 178 to 179 °C. Further, the inhibition at 10 µM in data set [1] (setting [2]) was 46.3%.
The matching figures for `CN1C(=NC2CCCC2)SCC1CC(=O)Nc1ccc(F)cc1Cl.Cl` (stereo not shown) [KHG24095, (2-cyclopentylimino-3-methyl-1,3-thiazolidine-4-yl)-N-(2-chloro-4-fluorophenyl)-acetamide hydrochloride]: 209 to 210.5 °C and 30.5%.
As for `CC(C)N1C(=NC23CC4CC(CC(C4)C2)C3)SCC1CC(=O)Nc1ccc(C(F)(F)F)cc1.Cl` (stereo not shown) [KHG24826, [2-(1-adamantylimino)-3-isopropyl-1,3-thiazolidine-4-yl]-N-(4-trifluoromethylphenyl)-acetamide hydrochloride], the melting point was 246 °C. The inhibition at 10 µM in data set [1] (setting [2]) amounted to 46.5%.
The matching figures for `COc1cccc(NC(=O)CC2CSC(=NC3CCCCC3)N2C)c1.Cl` (stereo not shown) [KHG24076, (2-cyclohexylimino-3-methyl-1,3-thiazolidine-4-yl)-N-(3-methoxyphenyl)-acetamide hydrochloride]: 156 to 158 °C and 39.9%.
The matching figures for `CCCN1C(=NC2CCCCC2)SCC1CC(=O)Nc1cc([N+](=O)[O-])ccc1F.Cl` (stereo not shown) [KHG24295, [2-cyclohexylimino-3-(n-propyl)-1,3-thiazolidine-4-yl]-N-(2-fluoro-5-nitrophenyl)-acetamide hydrochloride]: 139.2 °C and 36.2%.
In the case of `CN1C(=Nc2ccc(Cl)cc2)SCC1CC(=O)Nc1ccc(Cl)cc1.Cl` (stereo not shown) [KHG21652, [2-(4-chlorophenylimino)-3-methyl-1,3-thiazolidine-4-yl]-N-(4-chlorophenyl)-acetamide hydrochloride], the melting point lay in the range of 239 to 242 °C. Also, in data set [1] (setting [3]), the inhibition at 10 µM was -7.7%.
Regarding `CCCCc1ccc(NC(=O)CC2CSC(=NC3CCCCC3)N2CCC)cc1.Cl` (stereo not shown) [KHG24291, [2-cyclohexylimino-3-(n-propyl)-1,3-thiazolidine-4-yl]-N-(4-n-butylphenyl)-acetamide hydrochloride], the melting point worked out at 201.4 °C. Also, the inhibition at 10 µM in data set [1] (setting [2]) amounted to 63.2%.
Consider `CN1C(=NC2CCCCC2)SCC1CC(=O)Nc1cc(F)cc(F)c1.Cl` (stereo not shown) [KHG24534, (2-cyclohexylimino-3-methyl-1,3-thiazolidine-4-yl)-N-(3,5-difluorophenyl)-acetamide hydrochloride], for which the melting point was 240 °C. In data set [1] (setting [2]), the inhibition at 10 µM was 45.7%.
